Structures are written as SMILES. Peptide text beside a SMILES is read from it.

The term melting point denotes the temperature, or range, at which the solid turns liquid. In the case of `CCOC(=O)C1CC(=O)C(=C(O)C2CC2)C(=O)C1` (centres undefined), the melting point amounted to 36 °C.

In turn, `Cc1nc(-c2cc(C(=O)Cl)no2)cs1` registered a melting point of 89 to 91 °C. With `CC(=O)C=NO` the figure was 69 °C; with `COC(=O)C(C)Cl` (centres undefined), -10 °C; with `O=C(NC(=O)c1c(F)cccc1F)Nc1cc(Cl)c(OC(F)(F)C(F)F)c(Cl)c1`, 204 °C.

`O=C(O)c1cc(Cl)c(Cl)cc1Cl`: the melting point was found to be 166 °C.

In turn, `CCOC(=O)c1c(Cl)c(Cl)c(Cl)c(Cl)c1C(=O)O` gave a melting point of 94.5 °C. Consider `CC(=O)NCC1(c2ccccc2)CCN(CCCC(=O)c2ccc(F)cc2)CC1`, for which the melting point turned out to be 98.5 °C.

Compound `O=C(O)C=Cc1ccc(Sc2ccc(Cl)cc2)c([N+](=O)[O-])c1` yielded a melting point of 233 to 235 °C.

As to `COc1cc(C)cc(OC)c1C=O`, the melting point is 93 °C. With `CC(=O)/C(=N\Nc1cccc([N+](=O)[O-])c1)C(=O)C(F)(F)F` the figure was 205 to 206 °C. The figure for `NC(=O)C(F)(F)C(F)F` is 57 to 59 °C. With `Cc1c(S(=O)(=O)c2ccc(Cl)cc2)csc1C(=O)NN` the figure was 165 to 168 °C; with `NCCC(=O)N[C@@H](Cc1c[nH]cn1)C(=O)O`, 260 °C. With `O=C(C(=O)c1cccs1)c1cccs1`, the melting point was found to be 82.5 °C. The figure for `CC(C)(C)C1CCCCC1O` (centres undefined) is 45 °C; for `CC(=O)Nc1cc(Cl)c(F)cc1[N+](=O)[O-]` it is 111 °C.

Regarding `C=C=O`, the melting point is -151 °C.

In turn, `CCC(C)(Cl)Cl` registered a melting point of -74 °C. The figure for `Brc1ccc(I)cn1` is 124 °C; for `CCN(CC)CCNC(=O)c1cc(S(C)(=O)=O)ccc1OC` it is 124 °C; for `Cc1ccc(C(=O)NS(=O)(=O)c2ccc(N)cc2)cc1C` it is 222 °C. With `CCC1CC(NC(=O)CBr)C(C)(C)N1O` (centres undefined) the figure was 148 to 150 °C; with `Cc1nc(-c2ccc(C#N)cc2)cs1`, 154 °C; with `Nc1ncnc(Nc2ccccc2)n1`, 236 °C. With `Cc1cccc(NC(=O)c2cnc(C(C)(C)C)c(Cl)n2)c1` the figure was 99 °C; with `CC(C)C1=C(O)C(=O)C2=C(C1=O)C(O)C(O)C1C(C)(C)CCCC21C` (centres undefined), 203 to 205 °C; with `CCC1C2=C(OC(=O)C1(C)C)c1ccc(OC)cc1CC2` (centres undefined), 142 to 143 °C.

On to `C1OC2COCOC2C2OCOCC2O1` (centres undefined), for which the melting point is 232 to 233 °C. The figure for `C[P+]([O-])(CCCCN1C(=O)c2ccccc2C1=O)OCCCCN1C(=O)c2ccccc2C1=O` (centres undefined) is 114 °C; for `CC(=O)Oc1ccc([N+](=O)[O-])cc1` it is 76 to 79 °C; for `CCn1c(C)nc([N+](=O)[O-])c1I` it is 210 to 212 °C. The figure for `OC(CCN1CCCC1)(c1ccccc1)C1CCCCC1` (centres undefined) is 86 °C. The figure for `Nc1ccc(Cl)cc1C(=O)O` is 209 to 213 °C; for `CC1(C)C=CC=C(C(=O)O)C=C1` it is 88.5 °C. `Cc1cc(C)c(C=O)c(C)c1`: the melting point came out at 14 °C. The figure for `COc1cc(Cl)c(NC(C)=O)c(Cl)c1` is 186 to 188 °C; for `COC1=C(OC)/C(=C/CN=[N+]=[N-])OC1=O` it is 55 to 57 °C. With `Cn1c(=O)c(C2=NNC(=O)C2=NNc2c(Br)cc([N+](=O)[O-])cc2[N+](=O)[O-])c(O)c2ccccc21` the figure was 192 °C. With `O=Cc1cccc(-c2ncccn2)c1` the figure was 98 to 100 °C; with `O=c1cc(CN2CCOCC2)c2cc(O)c(O)cc2o1`, 232 °C. The compound `CC(C)Cc1ccc(C(=O)C(C)Br)cc1` (centres undefined) registered a melting point of 63 to 64 °C. With `O=[N+]([O-])c1sc2ccccc2c1Br` the figure was 165 to 167 °C; with `Cc1[nH]c2cc(C(F)(F)F)ccc2c1C(=O)N1CCCCC1`, 174 to 175 °C; with `N#C/C(=C/c1ccccc1)c1ccc(Cl)cc1`, 116 °C. With `Cc1nn(C)c(Cl)c1N=Nc1ccccc1` the figure was 44 to 46 °C; with `Cc1ccc(C(C(=O)NC(C)(C)C)N(C)C(=O)CCCc2ccc3ccc4cccc5ccc2c3c45)cc1` (centres undefined), 141 °C. The figure for `COc1cc(C=C2SC(=S)N(CNc3ccc([N+](=O)[O-])cc3)C2=O)ccc1O` is 195 °C; for `CCOC(=O)c1sc(-c2ccc(C(F)(F)F)cc2)nc1C` it is 87 to 89 °C. `O=Cc1ccc(N2CCOCC2)c([N+](=O)[O-])c1` gave a melting point of 53 to 55 °C.

Turning to `O=C(c1ccccc1O)c1ccccc1O`, the melting point came out at 59.5 °C. `NCC(O)c1ccc(O)c(O)c1` (centres undefined) returned a melting point of 217 °C. For the compound `Cc1ccc(Cl)c(N)c1Cl`, the melting point fell in the range of 37 to 40 °C. With `CSc1ncnc2c1cnn2-c1ccccc1` the figure was 115 to 117 °C. With `O=Cc1ccc(N2CCOCC2)s1` the figure was 126 to 128 °C; with `CC(=O)c1ccc(O)c([N+](=O)[O-])c1`, 132 °C. In the case of `Cc1cc(Cl)cc(Cl)c1Cl`, the melting point came to 45.5 °C. With `C[C@]12CC[C@H]3[C@@H](CCC4CC(=O)CC[C@@]43C)[C@@H]1CC[C@H]2OC=O` (some centres undefined) the figure was 124 °C.

`CC(C)=NNC(N)=O` yielded a melting point of 182 °C.

Turning to `Nc1c(C(=O)O)sc2nc(-c3ccccc3)cc(C(F)(F)F)c12`, the melting point lay within 159 to 161 °C. Consider `Brc1cc(Br)c(Oc2ccccc2)c(Br)c1`, for which the melting point lay within 85 to 86 °C. The figure for `COC1=C(OC)C(C(CBr)OC(C)=O)OC1=O` (centres undefined) is 74 °C.

For `Cc1cccc2cc3ccccc3cc12`, the melting point was 85.5 °C. The figure for `CCCOc1ccc2[nH]c(NC(=O)OC)nc2c1` is 230 °C; for `CCCCc1cc2c(O)c(C(=O)OC)cnc2cc1OCc1ccccc1` it is 288 °C. With `Cn1c(=O)on(-c2ccc(Cl)c(Cl)c2)c1=O` the figure was 123 °C. The figure for `O=C(O)C=Cc1cc(Br)ccc1F` is 195 to 199 °C; for `Cc1ccc(C2C(C#N)=C(N)Oc3[nH]nc(C(F)(F)F)c32)cc1` (centres undefined) it is 185 °C; for `N#Cc1cccc(CBr)c1` it is 94 °C. Consider `CCCCc1ccc(/N=N/c2ccc(OC(=O)CC)cc2)cc1`, for which the melting point lay in the range of 84 to 87 °C. The figure for `CC(C)(C)P(c1ccccc1-c1ccccc1)C(C)(C)C` is 84 to 87 °C; for `CN1CCc2cc(O)c(O)cc2C1` it is 255 °C; for `Cc1nc(NS(=O)(=O)c2ccc(N)cc2)oc1C` it is 193 °C.

`COC(=O)CC(=O)c1ccc(C(F)(F)F)cc1` showed a melting point of 57 to 62 °C. The figure for `Cc1cc2c(cc1S(N)(=O)=O)S(=O)(=O)CCC2` is 236 °C; for `COCCOCCOCCOC` it is -45 °C; for `Cc1cc(C)n(N=Cc2ccccc2)c(=O)c1C#N` it is 194 to 195 °C. The figure for `COC(=O)c1sc2ccccc2c1N` is 107 to 108 °C; for `N#Cc1ccccc1OCC(O)CNCCNC(=O)Cc1ccc(O)cc1` (centres undefined) it is 119 °C; for `CC(C(=O)O)c1ccc(C(=O)c2ccccc2)s1` (centres undefined) it is 96 °C. With `CC12CCC(=O)C=C1CCC1C2CCC2(C)C1CCC2(O)C(=O)CO` (centres undefined) the figure was 215 °C; with `CC#CCOS(=O)(=O)c1ccc(C)cc1`, 47.5 °C; with `CC(=O)Cc1ccccc1`, -15 °C. As to `O=C(Nc1cccc(Cl)c1)OCC#CCCl`, the melting point came to 75 °C.

Compound `Brc1ccc2[nH]ncc2c1` had a melting point of 123 to 124 °C. With `O=C(O)C1COc2ccccc2O1` (centres undefined) the figure was 125 to 128 °C. With `N#Cc1c(-c2ccc(Br)cc2)cc2c(C#N)c(=N)n(C(=O)c3ccccc3)n2c1N` the figure was 190 °C; with `N#CC(c1ccccc1)N1CCCCC1` (centres undefined), 62 to 63 °C; with `CN1C2CCC1CC(O)C2` (centres undefined), 109 °C. With `O=C(O)C1=Cc2ccccc2OC1` the figure was 150 °C; with `Nc1c(Br)cc(Br)c(Cl)c1Cl`, 98 °C. As to `Cc1cc(Cl)cc(Cl)c1`, the melting point amounted to 26 °C. With `OCc1nc2ccccc2[nH]1` the figure was 165 to 172 °C; with `CC(C)(C)OC(=O)Nc1cc(O)cc(C(=O)O)c1`, 150 to 151 °C; with `CCCCSP(SCCCC)SCCCC`, 100 °C. With `CC[C@H](C)[C@H](NC(=O)CN)C(=O)O` (H-Gly-Ile-OH) the figure was 248 °C.

For `CC(=O)OC1C2COC(O2)C(OC(C)=O)C1OC(C)=O` (centres undefined), the melting point amounted to 110 °C. With `CO[Si](OC)(OC)OC` the figure was 4.5 °C.

`COc1cc(NS(C)(=O)=O)ccc1Nc1c2ccccc2nc2ccccc12`: the melting point turned out to be 235 °C. With `Nc1nsc(-c2ccccc2)n1` the figure was 136 to 138 °C; with `O=C(Cl)c1ccc(-c2ccccn2)s1`, 140 to 141 °C; with `Cc1ccc(S(=O)(=O)NC(=S)Nc2ccccc2)cc1`, 148 to 149 °C. With `CSc1ccccc1C(=O)O` the figure was 170 to 173 °C; with `Cc1cc(Cl)ccc1OC(C)C(=O)Nc1ccc2nc(SCc3ccccc3)sc2c1` (centres undefined), 168 °C; with `C#CC1(O)CCC2C3CCc4cc(OC5CCCC5)ccc4C3CCC21C` (centres undefined), 108 °C. With `CC(C)(C)C(=O)CS(=O)(=O)c1ccc(Cl)cc1` the figure was 97 °C.

Regarding `CCOC(=O)C(OC(=O)c1ccccc1)c1cc(C(OC(=O)c2ccccc2)C(=O)OCC)c([N+](=O)[O-])cc1[N+](=O)[O-]` (centres undefined), the melting point is 133 °C. Regarding `C#CCC1(OC(N)=O)CCCCC1`, the melting point amounted to 99 °C. With `c1ccc(CN(CC2=NCCN2)c2ccccc2)cc1` the figure was 120 °C.
